# Reference: ChEMBL document CHEMBL1136123, “3,5,6-Trisubstituted naphthostyrils as CDK2 inhibitors” (Bioorg Med Chem Lett, 2003)
# Target: Cyclin-dependent kinase 2 (Homo sapiens, UniProt P24941)
# Assay: In vitro inhibition of Cyclin-dependent kinase 2
row,IC50 [nM],SMILES
1,23,NCCS(=O)(=O)c1cc(-c2ccc[nH]2)c2c3c(ccc(F)c13)NC2=O
2,15,O=C1Nc2ccc(F)c3c(S(=O)(=O)CCO)cc(-c4ccc[nH]4)c1c23
3,77,CCOc1cc(-c2ccc[nH]2)c2c3c(ccc(F)c13)NC2=O
4,3,NCCSc1cc(-c2ccc[nH]2)c2c3c(ccc(F)c13)NC2=O
5,12,NCCOc1cc(-c2ccc[nH]2)c2c3c(ccc(F)c13)NC2=O
6,204,O=C1Nc2ccc(F)c3ccc(-c4ccc[nH]4)c1c23
7,127,CC(=O)NCCNc1cc(-c2ccc[nH]2)c2c3c(ccc(F)c13)NC2=O
8,7,NCCCc1cc(-c2ccc[nH]2)c2c3c(ccc(F)c13)NC2=O
9,5,N#CCCc1cc(-c2ccc[nH]2)c2c3c(ccc(F)c13)NC2=O
10,18,O=C1Nc2ccc(F)c3c(SC[C@@H]4CCCN4)cc(-c4ccc[nH]4)c1c23
11,28,NCC[S+]([O-])c1cc(-c2ccc[nH]2)c2c3c(ccc(F)c13)NC2=O (centres undefined)
12,18,O=C1Nc2ccc(F)c3c(OCCCO)cc(-c4ccc[nH]4)c1c23
13,5,O=C1Nc2ccc(F)c3c(S[C@H]4CCNC4)cc(-c4ccc[nH]4)c1c23
14,62,O=C1Nc2ccc(F)c3c(OCCO)cc(-c4ccc[nH]4)c1c23
15,48,NCCCNc1cc(-c2ccc[nH]2)c2c3c(ccc(F)c13)NC2=O
16,> 1000,CC(=O)OCCCOc1cc(-c2ccc[nH]2)c2c3c(ccc(F)c13)NC2=O
17,72,CCc1cc(-c2ccc[nH]2)c2c3c(ccc(F)c13)NC2=O
18,376,Cc1cc(-c2ccc[nH]2)c2c3c(ccc(F)c13)NC2=O
19,65,CC(C)(N)CNc1cc(-c2ccc[nH]2)c2c3c(ccc(F)c13)NC2=O
20,14,O=C1Nc2ccc(F)c3c(SCCO)cc(-c4ccc[nH]4)c1c23
21,124,CC(C)Cc1cc(-c2ccc[nH]2)c2c3c(ccc(F)c13)NC2=O
22,54,O=C1Nc2ccc(F)c3c(NCCO)cc(-c4ccc[nH]4)c1c23
23,18,COc1cc(-c2ccc[nH]2)c2c3c(ccc(F)c13)NC2=O
24,5500,CC(C)(C)OC(=O)NCCNc1cc(-c2ccc[nH]2)c2c3c(ccc(F)c13)NC2=O
25,294,CCN(CC)CCNc1cc(-c2ccc[nH]2)c2c3c(ccc(F)c13)NC2=O

# Tested on: MDA-MB-435
# Assay: Inhibitory concentration against human breast carcinoma cell line proliferation
# Assay type: functional, cell-based
row,IC50 [nM],SMILES
1,1080,NCCS(=O)(=O)c1cc(-c2ccc[nH]2)c2c3c(ccc(F)c13)NC2=O
2,3200,O=C1Nc2ccc(F)c3c(S(=O)(=O)CCO)cc(-c4ccc[nH]4)c1c23
3,310,NCCSc1cc(-c2ccc[nH]2)c2c3c(ccc(F)c13)NC2=O
4,380,NCCOc1cc(-c2ccc[nH]2)c2c3c(ccc(F)c13)NC2=O
5,2280,O=C1Nc2ccc(F)c3ccc(-c4ccc[nH]4)c1c23
6,210,O=C1Nc2ccc(F)c3c(SC[C@@H]4CCCN4)cc(-c4ccc[nH]4)c1c23
7,1210,NCC[S+]([O-])c1cc(-c2ccc[nH]2)c2c3c(ccc(F)c13)NC2=O (centres undefined)
8,120,O=C1Nc2ccc(F)c3c(S[C@H]4CCNC4)cc(-c4ccc[nH]4)c1c23
9,580,O=C1Nc2ccc(F)c3c(OCCO)cc(-c4ccc[nH]4)c1c23
10,70,NCCCNc1cc(-c2ccc[nH]2)c2c3c(ccc(F)c13)NC2=O
11,160,CC(C)(N)CNc1cc(-c2ccc[nH]2)c2c3c(ccc(F)c13)NC2=O
12,1730,O=C1Nc2ccc(F)c3c(SCCO)cc(-c4ccc[nH]4)c1c23
13,620,O=C1Nc2ccc(F)c3c(NCCO)cc(-c4ccc[nH]4)c1c23
14,890,COc1cc(-c2ccc[nH]2)c2c3c(ccc(F)c13)NC2=O

# Tested on: RKO
# Assay: Inhibitory concentration against human colon cancer (RKO) cell line proliferation
# Assay type: functional, cell-based
row,SMILES,IC50 [nM]
1,NCCS(=O)(=O)c1cc(-c2ccc[nH]2)c2c3c(ccc(F)c13)NC2=O,430
2,O=C1Nc2ccc(F)c3c(S(=O)(=O)CCO)cc(-c4ccc[nH]4)c1c23,1200
3,NCCSc1cc(-c2ccc[nH]2)c2c3c(ccc(F)c13)NC2=O,100
4,NCCOc1cc(-c2ccc[nH]2)c2c3c(ccc(F)c13)NC2=O,110
5,O=C1Nc2ccc(F)c3ccc(-c4ccc[nH]4)c1c23,5950
6,O=C1Nc2ccc(F)c3c(SC[C@@H]4CCCN4)cc(-c4ccc[nH]4)c1c23,60
7,NCC[S+]([O-])c1cc(-c2ccc[nH]2)c2c3c(ccc(F)c13)NC2=O (centres undefined),420
8,O=C1Nc2ccc(F)c3c(S[C@H]4CCNC4)cc(-c4ccc[nH]4)c1c23,70
9,O=C1Nc2ccc(F)c3c(OCCO)cc(-c4ccc[nH]4)c1c23,500
10,NCCCNc1cc(-c2ccc[nH]2)c2c3c(ccc(F)c13)NC2=O,120
11,CC(C)(N)CNc1cc(-c2ccc[nH]2)c2c3c(ccc(F)c13)NC2=O,110
12,O=C1Nc2ccc(F)c3c(SCCO)cc(-c4ccc[nH]4)c1c23,1480
13,O=C1Nc2ccc(F)c3c(NCCO)cc(-c4ccc[nH]4)c1c23,740
14,COc1cc(-c2ccc[nH]2)c2c3c(ccc(F)c13)NC2=O,750

# Tested on: not listed separately
# Assay: Inhibition of blocked progression of G0 synchronized cell into S phase using G1-S cell cycle progression assay
# Assay type: functional
row,IC50 [nM],SMILES
1,810,NCCSc1cc(-c2ccc[nH]2)c2c3c(ccc(F)c13)NC2=O
2,910,NCCOc1cc(-c2ccc[nH]2)c2c3c(ccc(F)c13)NC2=O
3,> 30000,O=C1Nc2ccc(F)c3ccc(-c4ccc[nH]4)c1c23
4,1870,NCC[S+]([O-])c1cc(-c2ccc[nH]2)c2c3c(ccc(F)c13)NC2=O (centres undefined)
5,10900,O=C1Nc2ccc(F)c3c(OCCO)cc(-c4ccc[nH]4)c1c23
6,2040,NCCCNc1cc(-c2ccc[nH]2)c2c3c(ccc(F)c13)NC2=O
7,1490,NCCNc1cc(-c2ccc[nH]2)c2c3c(ccc(F)c13)NC2=O
8,1670,CC(C)(N)CNc1cc(-c2ccc[nH]2)c2c3c(ccc(F)c13)NC2=O
9,2740,O=C1Nc2ccc(F)c3c(SCCO)cc(-c4ccc[nH]4)c1c23
10,2390,O=C1Nc2ccc(F)c3c(NCCO)cc(-c4ccc[nH]4)c1c23
11,7100,COc1cc(-c2ccc[nH]2)c2c3c(ccc(F)c13)NC2=O
